Among the data in ChEMBL document CHEMBL5137121, “Spiroisoxazoline Inhibitors of Acetylcholinesterase from Pseudoceratina verrucosa. Quantitative Chiroptical Analysis of Configurational Heterogeneity, and Total Synthesis of (±)-Methyl Purpuroceratate C” (J Nat Prod, 2022) are IC50 and Ratio IC50 values, retold here.

Assay [1] has as its target Cholinesterase (Equus caballus, UniProt P81908). Put plainly: Inhibition of horse BuChE using butyrylthiocholine as substrate preincubated with enzyme for 30 mins followed by substrate addition by Ellman's method. In general terms: Ellman's reagent forms a yellow product with free thiols.
Assay [2] deals with Acetylcholinesterase (Electrophorus electricus, UniProt O42275). Description: Inhibition of electric eel AChE using acetylthiocholine as substrate preincubated with enzyme for 30 mins followed by substrate addition by Ellman's method.
Sequence of Acetylcholinesterase (O42275 whole entry): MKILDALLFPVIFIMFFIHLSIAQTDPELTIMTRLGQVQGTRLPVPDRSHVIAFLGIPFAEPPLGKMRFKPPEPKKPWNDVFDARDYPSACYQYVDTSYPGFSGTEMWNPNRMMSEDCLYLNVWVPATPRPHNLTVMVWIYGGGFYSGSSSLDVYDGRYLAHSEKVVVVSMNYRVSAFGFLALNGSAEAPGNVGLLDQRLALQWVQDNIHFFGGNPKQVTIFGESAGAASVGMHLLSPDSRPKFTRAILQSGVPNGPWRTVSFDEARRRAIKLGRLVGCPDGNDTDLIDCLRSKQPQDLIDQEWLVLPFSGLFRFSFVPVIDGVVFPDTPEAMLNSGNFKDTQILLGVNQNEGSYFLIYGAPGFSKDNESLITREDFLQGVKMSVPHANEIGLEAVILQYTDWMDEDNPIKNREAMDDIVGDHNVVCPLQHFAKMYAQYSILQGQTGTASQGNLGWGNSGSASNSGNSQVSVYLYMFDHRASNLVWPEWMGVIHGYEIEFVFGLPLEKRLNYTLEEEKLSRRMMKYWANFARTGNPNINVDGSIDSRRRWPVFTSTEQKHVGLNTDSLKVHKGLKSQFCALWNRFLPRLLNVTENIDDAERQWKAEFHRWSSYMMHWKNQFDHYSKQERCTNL
A short description of assay [3]: Selectivity index, ratio of IC50 for horse BuChE to IC50 for electric eel AChE.

Sequence of Cholinesterase (P81908 whole entry): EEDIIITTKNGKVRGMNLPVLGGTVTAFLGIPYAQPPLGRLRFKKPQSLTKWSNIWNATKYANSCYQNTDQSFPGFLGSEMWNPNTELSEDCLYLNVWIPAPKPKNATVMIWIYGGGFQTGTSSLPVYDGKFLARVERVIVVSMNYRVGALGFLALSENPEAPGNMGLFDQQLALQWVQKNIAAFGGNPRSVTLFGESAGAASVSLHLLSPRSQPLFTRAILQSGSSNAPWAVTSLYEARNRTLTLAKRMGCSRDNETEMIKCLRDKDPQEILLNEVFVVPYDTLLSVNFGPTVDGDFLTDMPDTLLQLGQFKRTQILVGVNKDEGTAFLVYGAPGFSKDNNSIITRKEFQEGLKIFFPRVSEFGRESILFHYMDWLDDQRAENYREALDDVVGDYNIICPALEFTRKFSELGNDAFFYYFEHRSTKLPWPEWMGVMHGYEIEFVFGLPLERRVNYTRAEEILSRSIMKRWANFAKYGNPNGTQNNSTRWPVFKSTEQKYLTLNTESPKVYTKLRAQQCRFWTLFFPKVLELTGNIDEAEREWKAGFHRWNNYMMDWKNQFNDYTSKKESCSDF

Regarding `COC1=C(Br)[C@H](O)[C@@]2(C=C1Br)CC(C(=O)NCCc1cc(Br)c(OCCC(C(=O)[O-])[N+](C)(C)C)c(Br)c1)=NO2` (stereo not given in full), the IC50 in assay [1] is 10 µM; in assay [2] it was 4.79 µM. Besides, the Ratio IC50 in assay [3] was 2.1.

As for `COC1=C(Br)[C@H](O)[C@@]2(C=C1Br)CC(C(=O)NCCCOc1c(Br)cc(C[C@H](N)C(=O)O)cc1Br)=NO2`, the IC50 was over 100 µM in assay [1] and 19.9 µM in assay [2]. In assay [3], the Ratio IC50 was over 5.

For `COC1=C(Br)[C@H](O)[C@@]2(C=C1Br)CC(C(=O)NCCCCCNC(=N)N)=NO2` [APLYSINAMISINE II], the IC50 is 10.3 µM in assay [1] and 0.77 µM in assay [2]. Further, the Ratio IC50 in assay [3] worked out at 13.

As to `COC1=C(Br)[C@H](O)[C@@]2(C=C1Br)CC(C(N)=O)=NO2`, the IC50 in assay [1] was 15.4 µM; in assay [2], 3.32 µM. Further, the Ratio IC50 in assay [3] is 4.6.

`COC1=C(Br)[C@H](O)[C@@]2(C=C1Br)CC(C(=O)NCCc1cc(Br)c(O)c(Br)c1)=NO2`: the values for the IC50 in assay [1] and in assay [2] were 10.7 µM and 5.8 µM, respectively. Further, the Ratio IC50 in assay [3] came to 1.9.

As usually defined, the IC50 is the concentration needed to halve the response being measured. A higher IC50 goes with weaker potency in that assay.
